The record followed here is patent publication EP0613890A1, “Novel triazole compound, process for preparing the same and antifungal agent containing the same” (NIHON NOHYAKU CO., LTD., priority 1993, dated 1994).

Assay [1] concerns Candida albicans IFO 1270. The experiment in a line: Growth inhibition of Candida albicans in Sabouraud's glucose broth (Test Example 1). Type of assay: cell-based. The settings on record: Candida albicans IFO 1270, Sabouraud's glucose broth. The protocol:
To 9.8 mℓ of Sabouraud's glucose broth, 0.1 mℓ of cell suspension of Candida albicans IFO 1270 (1.0 x 10⁷ cells/mℓ) and 0.1 mℓ of test compound solution (1000 or 10 µg/mℓ) was added. The growth inhibition ratio (%) was determined. For comparison, cis-1-acetyl-4-[4-[[2-(2,4-dichrolophenyl)-2-(imidazol-1-ylmethyl)-1,3-dioxolan-4-yl]methoxy]phenyl]piperazine (Ketoconazole) was used as a reference compound (hereinafter referred to as compound A).

Assay [2] has as its system Candida albicans IFO 1270. The assay can be described thus: Survival of mice intravenously inoculated with Candida albicans, oral treatment (Test Example 2). The settings on record: male ddy mice, i.v. Candida albicans IFO 1270 (1 x 10⁸ cells/kg); 10 mg/kg orally once a day for three days; 10th day from inoculation. Format: in vivo. The protocol: Six-week-old male ddy mice were used as test animals (10 animals per control group; 5 animals per test group). Each animal was intravenously inoculated with Candida albicans IFO 1270 (1 x 10⁸ cells/kg) which has been subcultured on Sabouraud's glucose agar at 37 °C for 24 hours.
After the inoculation, each test compound was orally administered at a dosage of 10 mg/kg to the animal once a day for consecutive three days.
On the 10th day from the inoculation, the survival rate was monitored.

For `C/C(=C\c1ccccn1)C(O)(Cn1cncn1)c1ccc(F)cc1F` (racemic) [compound 9], the figures for the “Growth Inhibition (%)” value in assay [1] (0.1 µg/mℓ) and in assay [1] (10 µg/mℓ) were 72% and 84%, respectively. Also, the “Rate of Survival (%)” value in assay [2] stood at 20%.

As to `C/C(=C\c1ccc(OCC(F)(F)C(F)F)cc1)C(O)(Cn1cncn1)c1ccc(F)cc1F` (racemic) [compound 7], the entries for the “Growth Inhibition (%)” value in assay [1] (0.1 µg/mℓ) and in assay [1] (10 µg/mℓ) were 60% and 86%, respectively. In assay [2], the “Rate of Survival (%)” value is on record as 100%.

As to `C/C(=C\c1ccc(CO)cc1)C(O)(Cn1cncn1)c1ccc(F)cc1F` (racemic) [compound 4], the “Growth Inhibition (%)” value in assay [1] (0.1 µg/mℓ) amounted to 8%; in assay [1] (10 µg/mℓ) it was 65%. Moreover, the “Rate of Survival (%)” value in assay [2] is 40%.

As to `C/C(=C\c1ccc(SC(C)(C)C)cc1)C(O)(Cn1cncn1)c1ccc(F)cc1F` (racemic) [compound 26], the “Growth Inhibition (%)” value came out at 48% in assay [1] (0.1 µg/mℓ) and 67% in assay [1] (10 µg/mℓ).

Take `C/C(=C\c1ccc(C(=O)N2CCOCC2)cc1)C(O)(Cn1cncn1)c1ccc(F)cc1F` (racemic) [Compound No. 3]: the “Growth Inhibition (%)” value in assay [1] (0.1 µg/mℓ) worked out at 0%; in assay [1] (10 µg/mℓ) it was 76%. In addition, in assay [2], the “Rate of Survival (%)” value amounted to 40%.

In the case of `C/C(=C\c1ccc(C(=O)NNC=O)cc1)C(O)(Cn1cncn1)c1ccc(F)cc1F` (racemic) [compound 15], the “Growth Inhibition (%)” value came to 3% in assay [1] (0.1 µg/mℓ) and 55% in assay [1] (10 µg/mℓ). Moreover, the “Rate of Survival (%)” value in assay [2] was found to be 60%.

Regarding `C/C(=C\c1ccc(-c2nc[nH]n2)cc1)C(O)(Cn1cncn1)c1ccc(F)cc1F` (racemic) [compound 23], the “Growth Inhibition (%)” value in assay [1] (0.1 µg/mℓ) amounted to 8%; in assay [1] (10 µg/mℓ), 67%.

With `CC(=O)N1CCN(c2ccc(OC[C@H]3CO[C@](Cn4ccnc4)(c4ccc(Cl)cc4Cl)O3)cc2)CC1` (relative stereo) [compound A, cis-1-acetyl-4-[4-[[2-(2,4-dichrolophenyl)-2-(imidazol-1-ylmethyl)-1,3-dioxolan-4-yl]methoxy]phenyl]piperazine, reference compound], the results for the “Growth Inhibition (%)” value in assay [1] (0.1 µg/mℓ) and in assay [1] (10 µg/mℓ) were 62% and 76%, respectively. The “Rate of Survival (%)” value in assay [2] is on record as 20%.

For the compound `C/C(=C\c1ccc(OC(F)(F)F)cc1)C(O)(Cn1cncn1)c1ccc(F)cc1F` (racemic) [Compound No. 6, 2-(2,4-Difluorophenyl)-2-[1-methyl-2-(4-trifluoromethoxyphenyl)ethenyl]-1-triazolyl-2-ethanol], the entries for the “Growth Inhibition (%)” value in assay [1] (0.1 µg/mℓ) and in assay [1] (10 µg/mℓ) were 63% and 86%, respectively. Moreover, the “Rate of Survival (%)” value in assay [2] was 100%.

On to `CC(=Cn1cncn1)C(O)(Cn1cncn1)c1ccc(F)cc1` (centres unmarked) [Compound No. 14], for which the “Rate of Survival (%)” value in assay [2] worked out at 100%.

Consider `C/C(=C\C=C\c1ccc(C(F)(F)F)cc1)C(O)(Cn1cncn1)c1ccc(F)cc1F` (racemic) [compound 37], for which the “Growth Inhibition (%)” value is 50% in assay [1] (0.1 µg/mℓ) and 78% in assay [1] (10 µg/mℓ). In assay [2], the “Rate of Survival (%)” value worked out at 100%.

For `C/C(=C\Sc1ccc(F)cc1)C(O)(Cn1cncn1)c1ccc(F)cc1` (racemic) [compound 30], the figures for the “Growth Inhibition (%)” value in assay [1] (0.1 µg/mℓ) and in assay [1] (10 µg/mℓ) were 11% and 83%, respectively. Besides, the “Rate of Survival (%)” value in assay [2] is reported as 40%.

Consider `C/C(=C\c1cccs1)C(O)(Cn1cncn1)c1ccc(F)cc1F` (racemic) [compound 10], for which the “Growth Inhibition (%)” value in assay [1] (0.1 µg/mℓ) was 13%; in assay [1] (10 µg/mℓ), 62%. Besides, the “Rate of Survival (%)” value in assay [2] was 40%.

For the compound `C/C(=C\C#Cc1ccc(F)cc1)C(O)(Cn1cncn1)c1ccc(F)cc1F` (racemic) [compound 36], the “Growth Inhibition (%)” value in assay [1] (0.1 µg/mℓ) came out at 71%; in assay [1] (10 µg/mℓ) it was 78%. Besides, the “Rate of Survival (%)” value in assay [2] is listed as 100%.

As to `C/C(=C\c1ccc(C#N)cc1)C(O)(Cn1cncn1)c1ccc(F)cc1F` (racemic) [Compound No. 5, 2-(2,4-Difluorophenyl)-2-[1-methyl-2(4-cyanophenyl)ethenyl]-1-triazolyl-2-ethanol], the “Growth Inhibition (%)” value in assay [1] (0.1 µg/mℓ) came to 72%; in assay [1] (10 µg/mℓ), 96%. For the same compound, the “Rate of Survival (%)” value in assay [2] is 100%.
